Experimental data published in patent publication US8999956B2, “N-[(het)arylalkyl)] pyrazole(thio)carboxamides and their heterosubstituted analogues” (Bayer Intellectual Property GmbH, priority 2010, dated 2015).
Like-named read-outs stand apart in the source and are kept apart here.

Experiments:
[1] = log P by HPLC on reversed-phase column (EEC Directive 79/831 Annex V.A8); format: physicochemical
Protocol: In table 1, the log P values were determined in accordance with EEC Directive 79/831 Annex V.A8 by HPLC (High Performance Liquid Chromatography) on a reversed-phase column (C18), using the method described below: Temperature: 40° C.; […]

[2] = test system: aflatoxines produced by Aspergillus parasiticus; assay: microbe, parasite or virus in culture; format: cell-based
Aspergillus parasiticus = assay: microbe, parasite or virus in culture; format: cell-based
Pyrenophora teres = assay: In vivo preventive test on Pyrenophora teres (barley); conditions: 500 ppm of active ingredient, evaluated 7-9 days after inoculation
Protocol: (§1) Solvent: 49 parts by weight of N,N-dimethylformamide Emulsifier: 1 part by weight of alkylaryl polyglycol ether To produce a suitable preparation of active compound, 1 part by weight of active compound is mixed with the stated amounts of solvent and emulsifier, and the concentrate is diluted with water to the desired concentration. To test for preventive activity, young plants are sprayed with the preparation of active compound at the stated rate of application. One day after this treatment, the plants are inoculated with an aqueous spore suspension of Pyrenophora teres.

Alternaria solani = assay: In vivo preventive test on Alternaria solani (tomato); conditions: 500 ppm of active ingredient, evaluated 7 days after inoculation
Protocol: as §1, with “Alkylarylpolyglycolether” for “alkylaryl polyglycol ether”, “Alternaria solani.” for “Pyrenophora teres.”

Structure (SMILES)	logP [1]	% Inhibition of Aflatoxin at 50 μM [2] [%]	% Inhibition of fungal growth at 50 μM (Aspergillus parasiticus) [%]	Efficacy (Pyrenophora teres) [%]	Efficacy (Alternaria solani) [%]	% Inhibition of Aflatoxin at 50 μM ([2]; 50 µM) [%]	% Inhibition of fungal growth at 50 μM (Aspergillus parasiticus; 50 µM) [%]
CC(COc1cc(Cl)cc(Cl)c1)NC(=O)c1c(C(F)F)nn(C)c1F (racemic) [Example 121]	3.72	100	98	100	90		
CC(COc1cc(Cl)cc(Cl)c1)NC(=O)c1c(C(F)F)nn(C)c1Cl (racemic) [Example 122]	3.92	100	91	100	100		
CCC(COc1cc(Cl)cc(Cl)c1)NC(=O)c1c(C(F)F)nn(C)c1F (racemic) [Example 123]	4.04	100	96	100	95		
CC(CNC(=O)c1c(C(F)F)nn(C)c1F)Cc1ccc(Cl)c(Cl)c1 (racemic) [Example 128]	3.68	83	71	100	95		
CC(CCc1ccc(Cl)c(Cl)c1)NC(=O)c1c(C(F)F)nn(C)c1F (racemic) [Example 132]	3.65	100	85	100	100		
CC(CCc1ccccc1Cl)NC(=O)c1c(C(F)F)nn(C)c1Cl (racemic) [Example 143]	3.41	96	73	100	100		
CN(CCN(C)c1cccc(Cl)c1)C(=O)c1c(C(F)F)nn(C)c1Cl [Example 81]	3.19	97	80		90		
CN(CCN(C)c1cccc(Cl)c1)C(=O)c1c(C(F)F)nn(C)c1F [Example 82]	3.02	100	100		95		
CC(CNC(=O)c1c(C(F)F)nn(C)c1F)Cc1cc(Cl)cc(Cl)c1 (stereo not shown) [Example 116]	3.83	100	82	100	90		
Cn1nc(C(F)F)c(C(=O)NCCOc2cc(Cl)cc(Cl)c2)c1F [Example 117]	3.35	99	81	78			
CC(CCc1cc(Cl)cc(Cl)c1)NC(=O)c1c(C(F)F)nn(C)c1Cl (stereo not shown) [Example 119]	4.01	95	77				
CC(CCc1cc(Cl)cc(Cl)c1)NC(=O)c1c(C(F)F)nn(C)c1F (stereo not shown) [Example 120]	3.83	100	100				
Cn1nc(C(F)F)c(C(=O)N(CCOc2c(Cl)cccc2Cl)C2CC2)c1F [Example 124, N-cyclopropyl-N-[2-(2,6-dichlorophenoxy)ethyl]-3-(difluoromethyl)-5-fluoro-1-methyl-1H-pyrazole-4-carboxamide]	4.23			90	95	99	81
Cn1nc(C(F)F)c(C(=O)NC(C)(C)CCc2cc(Cl)cc(Cl)c2)c1Cl [Example 125]	4.64	96	76	100	95		
Cn1nc(C(F)F)c(C(=O)NC(C)(C)CCc2cc(Cl)cc(Cl)c2)c1F [Example 126]	4.41	100	89	100	90		
Cn1nc(C(F)F)c(C(=O)NC(C)(C)CCc2ccc(Cl)c(Cl)c2)c1F [Example 134]	4.21	100	79				
Cn1nc(C(F)F)c(C(=O)NC(C)(C)CCc2cccc(C(F)(F)F)c2)c1F [Example 136]	3.94	93	71	95	80		
CN(CCCc1ccccc1Cl)C(=O)c1c(C(F)F)nn(C)c1F [Example 142]	3.06	100	84	95	100		
Cn1nc(C(F)F)c(C(=O)NC(C)(C)CCc2ccccc2Cl)c1F [Example 148]	3.79	90	67	95	95		
Cc1cccc(C)c1OCCNC(=O)c1c(C(F)F)nn(C)c1F [Example 151]	2.88	100	100	94	90		
CC(CNC(=O)c1c(C(F)F)nn(C)c1F)Cc1cc(Cl)ccc1Cl (stereo not shown) [Example 165]	3.65	99	83	100	90		
Cn1nc(C(F)F)c(C(=O)NCCOc2cc(Cl)ccc2Cl)c1F [Example 169]	3.11	100	84		90		
CC(COc1cc(Cl)ccc1Cl)NC(=O)c1c(C(F)F)nn(C)c1F (stereo not shown) [Example 173]	3.46	100	85	78	90		
CC(COc1cc(Cl)ccc1Cl)NC(=O)c1c(C(F)F)nn(C)c1Cl (stereo not shown) [Example 174]	3.69	85	67	95	100		
CC(CCc1ccc(Cl)cc1Cl)NC(=O)c1c(C(F)F)nn(C)c1Cl (stereo not shown) [Example 185]	3.99	100	89				
Cn1nc(C(F)F)c(C(=O)NCCOc2c(Cl)cc(Cl)cc2Cl)c1F [Example 202]	3.60	100	84	80			
CN(C(=O)c1c(C(F)F)nn(C)c1F)C(CSCc1ccccc1)C1CC1 (stereo not shown) [Example 225]	3.46	100	85		95		
Cn1nc(C(F)F)c(C(=O)N(C[Si](C)(C)Cc2cc(Cl)cc(Cl)c2)C2CC2)c1Cl [Example 292]	5.14	100	86				
CSC1CCCCC1N(C(=O)c1c(C(F)F)nn(C)c1F)C1CC1 (stereo not shown) [Example 351]	3.50	100	100				
CSC1CCCCC1N(C(=O)c1c(C(F)F)nn(C)c1Cl)C1CC1 (stereo not shown) [Example 352]	3.73	99	85				
